Laboratory results as given in ChEMBL document CHEMBL1201862, “PubChem BioAssay data set” (2004).
Activity calls are given as the source filed them.

How the values were obtained:
[1] = molecular target: T1, Long-chain-fatty-acid--AMP ligase FadD28 (Mycobacterium tuberculosis, UniProt P9WQ59); assay: Fluorescence polarization aasay to screen for inhibitors that compete for the binding of FadD28 to a bisubstrate Measured in Biochemical System Using Plate Reader - 2147-01_Inhibitor_Dose_CherryPick_Activity.; assay type: functional, Mycobacterium tuberculosis H37Rv
T1 sequence (P9WQ59 whole entry): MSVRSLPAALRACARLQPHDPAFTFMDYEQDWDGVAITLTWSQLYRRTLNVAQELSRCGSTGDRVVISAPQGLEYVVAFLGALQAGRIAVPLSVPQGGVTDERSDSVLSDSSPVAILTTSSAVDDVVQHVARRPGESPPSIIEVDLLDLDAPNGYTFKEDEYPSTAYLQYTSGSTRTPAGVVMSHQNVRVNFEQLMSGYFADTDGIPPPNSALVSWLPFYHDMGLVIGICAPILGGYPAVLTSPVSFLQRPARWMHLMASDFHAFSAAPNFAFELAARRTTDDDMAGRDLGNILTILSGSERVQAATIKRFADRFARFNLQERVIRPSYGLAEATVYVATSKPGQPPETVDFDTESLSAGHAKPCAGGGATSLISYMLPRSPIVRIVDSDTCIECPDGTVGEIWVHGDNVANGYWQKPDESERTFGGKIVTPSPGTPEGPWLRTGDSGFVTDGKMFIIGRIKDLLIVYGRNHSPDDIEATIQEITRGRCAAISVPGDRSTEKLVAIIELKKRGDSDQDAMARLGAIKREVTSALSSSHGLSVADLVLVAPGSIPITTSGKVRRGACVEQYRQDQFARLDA

[2] = viability of uninfected HEp-2 cells – cell-based, HTS, cytotoxicity control for RSV inhibitor project, dose response (AID 2410); assay type: functional; details: human respiratory syncytial virus
[3] = viability loss in THP-1 monocytes – THP-1 cells, cytotoxicity control for Vif-APOBEC3G degradation inhibitor project, dose response (AID 1117359); assay type: functional; details: THP-1
[4] = molecular target: T2, Corticotropin-releasing factor receptor 2/Corticotropin-releasing factor-binding protein (Homo sapiens, UniProt P24387+Q13324); assay: Dose Response confirmation of uHTS hits for small molecule antagonists of the CRF-binding protein and CRF-R2 receptor complex.; assay type: functional; details: read-out: IC50_Mean
T2 sequence (Q13324 whole entry): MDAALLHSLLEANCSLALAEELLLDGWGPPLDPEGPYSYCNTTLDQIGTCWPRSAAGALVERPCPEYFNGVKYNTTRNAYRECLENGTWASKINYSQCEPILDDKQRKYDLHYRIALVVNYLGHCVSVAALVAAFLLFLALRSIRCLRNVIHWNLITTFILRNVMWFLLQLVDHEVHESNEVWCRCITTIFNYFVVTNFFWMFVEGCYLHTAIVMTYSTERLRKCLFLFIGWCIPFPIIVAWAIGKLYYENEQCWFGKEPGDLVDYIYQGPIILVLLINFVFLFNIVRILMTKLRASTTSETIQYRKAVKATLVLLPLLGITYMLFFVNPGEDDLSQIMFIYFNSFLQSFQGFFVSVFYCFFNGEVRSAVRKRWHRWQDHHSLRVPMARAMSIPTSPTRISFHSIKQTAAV
T2 sequence (P24387 whole entry): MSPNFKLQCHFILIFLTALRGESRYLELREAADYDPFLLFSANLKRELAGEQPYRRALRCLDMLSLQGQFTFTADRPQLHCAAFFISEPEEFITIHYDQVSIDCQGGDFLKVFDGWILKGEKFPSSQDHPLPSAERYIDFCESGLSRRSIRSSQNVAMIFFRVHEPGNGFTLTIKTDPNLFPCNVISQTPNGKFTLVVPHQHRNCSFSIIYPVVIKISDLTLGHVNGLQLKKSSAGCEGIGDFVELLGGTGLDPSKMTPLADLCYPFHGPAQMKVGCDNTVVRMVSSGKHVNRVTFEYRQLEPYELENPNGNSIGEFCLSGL

[5] = molecular target: T2, Corticotropin-releasing factor receptor 2/Corticotropin-releasing factor-binding protein; assay: activators of CRF receptor 2 with binding protein – uHTS hits, confirmation (AID 602473); assay type: functional; details: read-out: EC50_Mean
Protein Tat = molecular target: T3, Protein Tat (Human immunodeficiency virus type 1 group M subtype B (isolate HXB2)(HIV-1), UniProt P04608); assay type: functional;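 also: tat binding to TAR RNA read out by fluorescence polarization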
T3 sequence (P04608 whole entry): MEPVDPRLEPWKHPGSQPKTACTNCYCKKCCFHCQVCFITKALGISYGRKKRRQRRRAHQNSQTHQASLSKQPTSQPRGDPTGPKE

[6] = A cytotoxicity screen of small molecule inhibitors of the PhoP region in Salmonella typhi identified in the primary screen. [Related pubchem assays: 1850, 1864, 1985 ]; assay type: functional
[7] = blockers of HIV-1 envelope-mediated cell-cell fusion – cherry-pick, dose response (AID 652057); assay type: functional, cell-based
[8] = blockers of HIV-1 ZM109 envelope-driven cell-cell fusion – HeLa effector, CEM target cells, luciferase, cherry-pick, dose response (AID 652058); assay type: functional, cell-based;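 also: luciferase signal from HIV-1 Env mediated cell-cell fusion of effector and target cells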
[9] = off-target signal loss in HeLa-CEM21 co-culture – HeLa F-luc CTL cells, cherry-picked, counter-screen for HIV-1 Env fusion inhibitor project, dose response (AID 652040); assay type: functional, cell-based;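 also: potency for signal decrease marking cytotoxic or nonspecific inhibition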
[10] = HIV-1 AD8 envelope cell-cell fusion blockers – cherry-pick, dose response (AID 652062); assay type: functional, cell-based;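 also: luciferase signal from cell-cell fusion driven by HIV-1 clade B AD8 Env; potency is for inhibitors of fusion seen as a drop in luminescence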
H9c2 = assay: cells; assay type: functional, cell-based; details: Rattus norvegicus, H9c2, Myocardium;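 also: confirmatory concentration-response retest of ultra-high-throughput screening hits for modulation of myocardial damage; cell death induced by hydrogen peroxide oxidative stress; compound pretreatment for 60 min then peroxide exposure for 2 h; potency is for protecting the cells against peroxide damage rather than for killing them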
[11] = molecular target: Disintegrin and metalloproteinase domain-containing protein 17 (Homo sapiens, UniProt P78536); assay: exosite inhibitors of ADAM17, dose response, biochemical (AID 743260)
[12] = molecular target: T4, RNA-binding protein pos-1 (Caenorhabditis elegans, UniProt G5EF15); assay: disruptors of C. elegans POS-1 RNA interaction – biochemical, fluorescence polarization, dose response (AID 1964);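 also: purified POS-1 fused to maltose binding protein made in E. coli; potency of compounds blocking POS-1 binding to fluorescent RNA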
T4 sequence (G5EF15 whole entry): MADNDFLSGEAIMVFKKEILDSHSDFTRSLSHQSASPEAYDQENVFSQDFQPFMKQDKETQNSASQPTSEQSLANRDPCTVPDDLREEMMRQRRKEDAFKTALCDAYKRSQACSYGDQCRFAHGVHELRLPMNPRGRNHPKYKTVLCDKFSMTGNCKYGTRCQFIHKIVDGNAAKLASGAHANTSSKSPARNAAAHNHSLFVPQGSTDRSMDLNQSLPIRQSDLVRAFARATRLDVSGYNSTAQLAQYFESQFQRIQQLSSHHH

[13] = molecular target: T5, Zinc finger protein mex-5 (Caenorhabditis elegans, UniProt Q9XUB2); assay: potency of MEX-5 RNA-binding blockers – biochemical, C. elegans, fluorescence polarization, dose response (AID 1960)
T5 sequence (Q9XUB2 whole entry): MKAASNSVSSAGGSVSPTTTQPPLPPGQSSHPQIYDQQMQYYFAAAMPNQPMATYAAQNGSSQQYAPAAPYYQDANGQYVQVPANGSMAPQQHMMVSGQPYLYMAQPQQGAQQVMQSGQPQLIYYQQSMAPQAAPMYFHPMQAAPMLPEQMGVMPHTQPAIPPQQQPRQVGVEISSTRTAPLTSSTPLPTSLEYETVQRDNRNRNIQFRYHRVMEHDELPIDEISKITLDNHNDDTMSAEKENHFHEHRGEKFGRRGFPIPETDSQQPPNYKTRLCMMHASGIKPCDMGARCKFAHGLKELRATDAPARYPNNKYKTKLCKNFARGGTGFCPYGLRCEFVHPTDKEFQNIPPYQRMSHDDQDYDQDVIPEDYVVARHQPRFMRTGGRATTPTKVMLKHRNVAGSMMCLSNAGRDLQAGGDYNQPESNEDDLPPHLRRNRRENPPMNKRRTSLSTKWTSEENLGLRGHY

Sequence of Disintegrin and metalloproteinase domain-containing protein 17 (P78536 whole entry, the tested form may be a part): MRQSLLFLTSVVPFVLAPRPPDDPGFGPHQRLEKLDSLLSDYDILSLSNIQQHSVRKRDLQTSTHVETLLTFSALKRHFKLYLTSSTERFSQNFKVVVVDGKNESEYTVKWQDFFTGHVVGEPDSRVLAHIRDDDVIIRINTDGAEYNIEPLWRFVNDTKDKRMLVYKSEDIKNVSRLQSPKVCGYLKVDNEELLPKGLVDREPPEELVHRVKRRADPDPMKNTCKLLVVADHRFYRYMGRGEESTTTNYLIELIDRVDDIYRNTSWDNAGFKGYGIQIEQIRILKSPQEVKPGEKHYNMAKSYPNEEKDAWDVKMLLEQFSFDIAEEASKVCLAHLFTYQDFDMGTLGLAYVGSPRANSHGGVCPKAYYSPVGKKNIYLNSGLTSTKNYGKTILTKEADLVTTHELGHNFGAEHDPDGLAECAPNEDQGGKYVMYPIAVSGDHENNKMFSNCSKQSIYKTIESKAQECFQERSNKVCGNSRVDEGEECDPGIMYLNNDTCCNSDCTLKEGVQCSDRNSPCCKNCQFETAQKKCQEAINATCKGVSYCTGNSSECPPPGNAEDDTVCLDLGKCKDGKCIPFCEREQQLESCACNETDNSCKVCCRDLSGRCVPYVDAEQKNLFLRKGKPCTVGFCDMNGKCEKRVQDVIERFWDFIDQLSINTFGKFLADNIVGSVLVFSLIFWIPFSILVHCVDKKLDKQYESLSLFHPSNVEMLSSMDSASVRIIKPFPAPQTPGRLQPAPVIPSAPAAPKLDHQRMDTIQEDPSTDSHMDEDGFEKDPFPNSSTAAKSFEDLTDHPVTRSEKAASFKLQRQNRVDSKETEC

For COc1cccc(C2CC(c3ccccc3)=NN2S(=O)(=O)c2ccccc2)c1OC (centres undefined), the AC50 [1] was 62.2 µM (active).
In the case of O=C1CCCC2=C1C(c1ccc(Cl)cc1)C1C(=O)c3ccccc3C1=N2 (centres undefined), the CC50 [2] is reported as 17 µM (active) and the AC50 [1] is reported as > 100 µM (inactive).
For Cn1cccc1/C=C1/C(=O)NC(=O)N(Cc2ccc(F)cc2)C1=O, the CC50 [3] was > 40 µM (active).
In the case of CC(C)CC(NC(=O)/C(=C/c1ccco1)NC(=O)c1ccc(Br)o1)C(=O)O (centres undefined), the IC50 [4] is reported as > 47.1 µM (inactive), the EC50 [5] is reported as > 53 µM (inactive) and the IC50 (Protein Tat) is reported as > 100 µM (active).
In the case of CCc1ccccc1N=C(S)N(Cc1cccc(C)c1)c1cccnc1, the EC50 [6] is reported as > 50 µM (active).
With CC(OC(=O)CC1CCCC1)C(=O)Nc1ccc(Cl)cn1 (centres undefined) the CC50 [3] was > 40 µM (active).
For C=C1CCN([C@H](C(=O)OCc2ccc(C)cc2)C(C)C)S(=O)(=O)c2ccccc21, the AC50 [7] was 3.35 µM (active), the AC50 [8] was 7.43 µM (active) and the AC50 [9] was 5.69 µM (active). For the same compound, the AC50 [10] was 13.2 µM (active).
For COc1ccccc1N1CCN(CC(O)COCCOc2ccc(Br)cc2)CC1 (centres undefined), the CC50 [3] was 29.9 µM (active).
In the case of O=C1OCCN1C(=O)[C@H]1[C@H](c2ccc([N+](=O)[O-])cc2)C(c2ccccc2)=NN1c1ccc(Br)cc1, the IC50 (H9c2) is reported as 15.2 µM (active) and the IC50 [11] is reported as > 69.5 µM (inactive).
For Cc1cccc(N2C(=O)/C(=C/c3ccc(CN(CCC#N)S(C)(=O)=O)o3)C(=O)NC2=S)c1, the EC50 [12] was 67 µM (active), the EC50 [13] was 41.2 µM (active) and the IC50 (Protein Tat) was > 100 µM (active).
